Data taken from ChEMBL document CHEMBL1125660, “Synthesis and aromatase inhibitory activity of novel 1-(4-aminophenyl)-3-azabicyclo[3.1.0]hexane- and -[3.1.1]heptane-2,4- diones” (J Med Chem, 1991).

Legend:
[1] = biological target: T1, Steroid 17-alpha-hydroxylase/17,20 lyase (Homo sapiens, UniProt P05093); assay type: functional
T1 sequence (P05093 whole entry): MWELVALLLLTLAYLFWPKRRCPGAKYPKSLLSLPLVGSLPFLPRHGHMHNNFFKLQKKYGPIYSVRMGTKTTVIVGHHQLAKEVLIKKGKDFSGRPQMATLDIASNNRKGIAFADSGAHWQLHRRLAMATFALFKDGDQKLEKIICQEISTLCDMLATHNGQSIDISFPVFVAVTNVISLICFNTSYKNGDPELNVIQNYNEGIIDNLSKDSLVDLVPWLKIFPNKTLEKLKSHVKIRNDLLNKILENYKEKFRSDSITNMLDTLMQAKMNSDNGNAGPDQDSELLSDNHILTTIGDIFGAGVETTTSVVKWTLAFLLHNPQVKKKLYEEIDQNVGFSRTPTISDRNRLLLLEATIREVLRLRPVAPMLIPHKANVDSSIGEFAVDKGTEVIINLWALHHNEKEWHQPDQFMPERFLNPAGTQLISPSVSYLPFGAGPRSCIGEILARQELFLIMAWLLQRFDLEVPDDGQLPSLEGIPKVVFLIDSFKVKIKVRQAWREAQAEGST

[2] = biological target: T2, Cytochrome P450 11B2, mitochondrial (Rattus norvegicus, UniProt P30099)
T2 sequence (P30099 whole entry): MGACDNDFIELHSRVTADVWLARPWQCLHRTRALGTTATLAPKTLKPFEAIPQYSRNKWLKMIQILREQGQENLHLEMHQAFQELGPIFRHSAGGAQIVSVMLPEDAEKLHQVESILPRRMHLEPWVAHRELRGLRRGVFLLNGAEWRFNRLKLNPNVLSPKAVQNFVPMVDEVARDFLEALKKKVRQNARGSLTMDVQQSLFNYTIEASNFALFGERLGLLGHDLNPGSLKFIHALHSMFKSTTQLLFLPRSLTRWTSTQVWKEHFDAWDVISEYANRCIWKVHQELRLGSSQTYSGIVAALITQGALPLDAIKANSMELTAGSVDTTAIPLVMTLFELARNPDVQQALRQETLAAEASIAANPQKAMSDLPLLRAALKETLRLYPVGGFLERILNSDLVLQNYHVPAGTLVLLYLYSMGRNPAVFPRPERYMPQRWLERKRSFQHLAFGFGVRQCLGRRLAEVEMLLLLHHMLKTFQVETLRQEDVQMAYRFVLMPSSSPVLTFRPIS

Aromatase [3] = biological target: T3, Aromatase (Rattus norvegicus, UniProt P22443); details: in vivo, po
T3 sequence (P22443 whole entry): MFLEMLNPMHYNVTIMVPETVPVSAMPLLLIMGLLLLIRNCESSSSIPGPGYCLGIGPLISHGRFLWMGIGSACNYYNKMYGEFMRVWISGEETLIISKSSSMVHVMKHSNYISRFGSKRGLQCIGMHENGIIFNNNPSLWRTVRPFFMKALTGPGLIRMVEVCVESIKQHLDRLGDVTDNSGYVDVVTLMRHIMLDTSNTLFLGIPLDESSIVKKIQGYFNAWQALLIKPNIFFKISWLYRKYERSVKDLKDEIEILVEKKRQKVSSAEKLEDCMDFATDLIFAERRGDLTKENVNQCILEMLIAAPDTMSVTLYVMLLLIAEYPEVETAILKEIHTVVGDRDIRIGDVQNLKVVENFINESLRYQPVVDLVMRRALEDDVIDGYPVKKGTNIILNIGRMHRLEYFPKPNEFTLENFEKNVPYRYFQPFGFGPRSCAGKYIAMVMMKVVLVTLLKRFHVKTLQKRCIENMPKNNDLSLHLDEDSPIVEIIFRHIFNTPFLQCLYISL

[4] = biological target: T1, Steroid 17-alpha-hydroxylase/17,20 lyase; assay type: functional; remark: listed apart in the source
Rattus norvegicus [5] = species: Rattus norvegicus; assay type: functional; details: dose 31.3 mg/kg; route oral
Rattus norvegicus [6] = species: Rattus norvegicus; assay type: functional; details: dose 62.5 mg/kg; route oral
Rattus norvegicus [7] = species: Rattus norvegicus; assay type: functional; details: dose 125 mg/kg; route oral
Rattus norvegicus [8] = species: Rattus norvegicus; assay type: functional; details: dose 15.6 mg/kg; route oral
Rattus norvegicus [9] = species: Rattus norvegicus; assay type: functional; details: dose 125 mg/kg; route oral; remark: listed apart in the source
Rattus norvegicus [10] = species: Rattus norvegicus; assay type: functional; details: dose 15.6 mg/kg; route oral; remark: listed apart in the source
Rattus norvegicus [11] = species: Rattus norvegicus; assay type: functional; details: dose 62.5 mg/kg; route oral; remark: listed apart in the source
Rattus norvegicus [12] = species: Rattus norvegicus; assay type: functional; details: dose 125 mg/kg; route oral; remark: listed apart in the source
Rattus norvegicus [13] = species: Rattus norvegicus; assay type: functional; details: dose 25.6 mg/kg; route oral
Rattus norvegicus [14] = species: Rattus norvegicus; assay type: functional; details: dose 31.3 mg/kg; route oral; remark: listed apart in the source
Rattus norvegicus [15] = species: Rattus norvegicus; assay type: functional; details: dose 62.5 mg/kg; route oral; remark: listed apart in the source
Rattus norvegicus [16] = species: Rattus norvegicus; assay type: functional; details: dose 31.3 mg/kg
Rattus norvegicus [17] = species: Rattus norvegicus; assay type: functional; details: dose 62.5 mg/kg; route oral; remark: listed apart in the source
Rattus norvegicus [18] = species: Rattus norvegicus; assay type: functional; details: dose 12.5 mg/kg
Rattus norvegicus [19] = species: Rattus norvegicus; assay type: functional; details: dose 15.6 mg/kg
Rattus norvegicus [20] = species: Rattus norvegicus; assay type: functional; details: dose 31.3 mg/kg; remark: listed apart in the source
Rattus norvegicus [21] = species: Rattus norvegicus; assay type: functional; details: dose 62.5 mg/kg
Rattus norvegicus [22] = species: Rattus norvegicus; assay type: functional
Rattus norvegicus [23] = species: Rattus norvegicus; assay type: functional; details: dose 15.6 mg/kg; remark: listed apart in the source
Rattus norvegicus [24] = species: Rattus norvegicus; assay type: functional; details: dose 31.3 mg/kg; route oral; remark: listed apart in the source
[25] = biological target: T2, Cytochrome P450 11B2, mitochondrial; remark: listed apart in the source
Aromatase [26] = biological target: T3, Aromatase; details: in vivo, po; remark: listed apart in the source
Rattus norvegicus [27] = species: Rattus norvegicus; assay type: functional; details: dose 100 mg/kg; route oral
Rattus norvegicus [28] = species: Rattus norvegicus; assay type: functional; details: dose 30 mg/kg; route oral
Rattus norvegicus [29] = species: Rattus norvegicus; assay type: functional; details: dose 100 mg/kg; route oral; remark: listed apart in the source
Rattus norvegicus [30] = species: Rattus norvegicus; assay type: functional; details: dose 30 mg/kg; route oral; remark: listed apart in the source
Rattus norvegicus [31] = species: Rattus norvegicus; assay type: functional; details: dose 100 mg/kg; route oral; remark: listed apart in the source
Rattus norvegicus [32] = species: Rattus norvegicus; assay type: functional; details: dose 30 mg/kg; route oral; remark: listed apart in the source
Rattus norvegicus [33] = species: Rattus norvegicus; assay type: functional; details: dose 30 mg/kg
Rattus norvegicus [34] = species: Rattus norvegicus; assay type: functional; remark: listed apart in the source
Rattus norvegicus [35] = species: Rattus norvegicus; assay type: functional; details: dose 30 mg/kg; route oral; remark: listed apart in the source
Rattus norvegicus [36] = species: Rattus norvegicus; assay type: functional; details: dose 100 mg/kg
[37] = biological target: T2, Cytochrome P450 11B2, mitochondrial; remark: listed apart in the source
[38] = biological target: T2, Cytochrome P450 11B2, mitochondrial; remark: listed apart in the source

SMILES: Nc1ccc(C23CC2C(=O)N(CC2CCCCC2)C3=O)cc1 (stereo in doubt; (+)-1h)
- IC50 [1]: > 34 µM
- IC50 [2]: > 34 µM
- ED (Aromatase [3]): 1 mg/kg

SMILES: Nc1ccc(C23CC2C(=O)N(CC2CCCCC2)C3=O)cc1 (stereo unspecified)
- IC50 [4]: > 330 µM
- Response (Rattus norvegicus [5]): 55%
- Response (Rattus norvegicus [6]): 4.1%
- Response (Rattus norvegicus [7]): 5%
- Response (Rattus norvegicus [8]): 78.3%
- Response (Rattus norvegicus [9]): 0%
- Response (Rattus norvegicus [10]): 17.4%
- Response (Rattus norvegicus [11]): 4.2%
- Response (Rattus norvegicus [12]): 82.6%
- Response (Rattus norvegicus [13]): 4.3%
- Response (Rattus norvegicus [14]): 15%
- Response (Rattus norvegicus [15]): 91.6%
- No. of tumors (Rattus norvegicus [16]): 20
- No. of tumors (Rattus norvegicus [17]): 24
- New tumors (Rattus norvegicus [18]): 0
- New tumors (Rattus norvegicus [19]): 3
- New tumors (Rattus norvegicus [20]): 3
- New tumors (Rattus norvegicus [21]): 0
- No. of tumors (Rattus norvegicus [22]): 23
- No. of tumors (Rattus norvegicus [23]): 23
- Response (Rattus norvegicus [24]): 30%
- IC50 [25]: > 330 µM
- ED (Aromatase [26]): 1.5 mg/kg

SMILES: CCC1(c2ccc(N)cc2)CCC(=O)NC1=O (stereo unspecified) [AMINOGLUTETHIMIDE]
- IC50 [1]: 60 µM
- Response (Rattus norvegicus [27]): 66.6%
- Response (Rattus norvegicus [28]): 91.6%
- Response (Rattus norvegicus [29]): 22.2%
- Response (Rattus norvegicus [30]): 4.1%
- Response (Rattus norvegicus [31]): 11.2%
- Response (Rattus norvegicus [32]): 4.25%
- New tumors (Rattus norvegicus [33]): 4
- No. of tumors (Rattus norvegicus [34]): 18
- No. of tumors (Rattus norvegicus [35]): 24
- New tumors (Rattus norvegicus [36]): 5
- IC50 [37]: 110 µM

SMILES: Nc1ccc(C23CC(C2)C(=O)N(C2CCCCC2)C3=O)cc1
- IC50 [4]: 140 µM
- IC50 [38]: 140 µM
- ED (Aromatase [26]): 0.3 mg/kg
